# Experimental data from ChEMBL document CHEMBL2086262, “Ligand-based designing, in silico screening, and biological evaluation of new potent fructose-1,6-bisphosphatase (FBPase) inhibitors” (Eur J Med Chem, 2012).
# Calls of active or inactive are those of the source. The rule behind the calls is not given here.
# Tested on: not listed separately
# Assay: Inhibition of human recombinant FBPase using fructose-1,6-biphosphate as substrate incubated for 3 mins prior to substrate addition by spectrophotometric analysis
row,Compound,IC50 [nM]
1,O=C(O)c1ccccc1C(=O)CCC(=O)c1ccccc1C(=O)O,900
2,CCOC(=O)c1csc(-c2csc(CCNC(=O)c3ccccc3)n2)n1,330
3,O=S(=O)(O)c1ccccc1/C=N/N=C/c1ccccc1S(=O)(=O)O,150
4,CC1(C)C2CCC1(C)C(OCCC/N=C(\N)CSS(=O)(=O)O)C2 (centres undefined),3800
5,O=C(CCCOc1ccc(Cl)cc1Cl)NC(CC1NCc2ccccc21)C(=O)O (centres undefined),5880
6,CCN1C(=O)/C(=C/c2ccc(O)c(S(=O)(=O)O)c2)SC1=S,6020
7,COc1ccc(C(=O)/C=C2/Nc3ccc([N+](=O)[O-])cc3NC2=O)cc1,320
8,CC1(C)N=C(N)N=C(N)N1c1cccc(OCCOc2ccccc2[N+](=O)[O-])c1,250
9,C=CCN1C(=O)/C(=C/c2ccccc2OCC(=O)O)SC1=S,3460
10,C[N+](C)(CCCCOc1c(Br)cc(Br)cc1Br)Cc1ccc([N+](=O)[O-])o1,700
11,Cc1cc(Cl)ccc1OCCCC(=O)NC(CC(C)C)C(=O)O (centres undefined),2440
12,O=C(OCc1ccc([N+](=O)[O-])cc1)c1ccccc1[N+](=O)[O-],1650
13,CN(C)C(=O)c1[nH]c2cc(Cl)cc(Cl)c2c1CCC(=O)O,> 10000
14,COC(=O)CC(=O)CC(=O)c1cccc([N+](=O)[O-])c1,2230
15,CC(C)Oc1ccc2ncnc(Nc3cccc(Br)c3)c2c1,> 10000
16,CCOc1cc2nc(Cl)nc(Nc3cccc(-c4csc(C)n4)c3)c2cc1OCC,2600

row,Compound,IC50 [nM]
1,CCOc1cc2ncnc(Nc3cccc(-c4csc(C(N)=O)n4)c3)c2cc1OCC,930
2,O=C(O)CCc1c(CO)[nH]c2cc(Cl)cc(Cl)c12,> 10000
3,COc1cc(-c2cccc(N)c2)c2oc(NS(=O)(=O)c3cc(Cl)ccc3Cl)nc2c1,570
4,CCOc1cc2ncnc(Nc3cccc(-c4cccc(C)c4)c3)c2cc1OCC,> 10000
5,CCOc1cc2ncnc(Nc3cccc(-c4csc(COC)n4)c3)c2cc1OCC,7300
6,CCOc1cc2nc(CC)nc(Nc3cccc(-c4csc(C)n4)c3)c2cc1OCC,1500
7,O=C(O)CCc1c(C(=O)O)[nH]c2cc(Cl)cc(Cl)c12,≥ 2500
8,CCOc1cc2nc(CN3CCOCC3)nc(Nc3cccc(Br)c3)c2cc1OCC,> 10000
9,CCOc1cc2nc(C(C)C)nc(Nc3cccc(-c4csc(C)n4)c3)c2cc1OCC,5000
10,CCOc1cc2ncnc(Nc3cccc(Cl)c3)c2cc1OCC,1600
11,CCOc1cc2nc(CN(CC)CC)nc(Nc3cccc(Br)c3)c2cc1OCC,> 10000
12,CCOc1cc2nc(Cc3ccccc3)nc(Nc3cccc(-c4csc(C)n4)c3)c2cc1OCC,> 10000
13,O=C(O)CCCc1c(C(=O)O)[nH]c2cc(Cl)cc(Cl)c12,1000
14,CCOc1cc2ncnc(Nc3ccc(Cl)c(C)c3)c2cc1OCC,> 10000
15,CCOc1cc2ncnc(Nc3cccc(-c4csc(NN)n4)c3)c2cc1OCC,4500
16,CCOc1cc2ncnc(Nc3cccc(F)c3)c2cc1OCC,9200

# Species: Homo sapiens
# Assay: Inhibition of human recombinant FBPase using fructose-1,6-biphosphate as substrate at 10 uM incubated for 3 mins prior to substrate addition by spectrophotometric analysis
row,Compound,inhibition
1,O=C(O)c1ccccc1C(=O)CCC(=O)c1ccccc1C(=O)O,87%
2,COc1cc(C2=N/C(=C\c3cccc(O)c3O)C(=O)O2)cc(OC)c1OC,inactive
3,CCOC(=O)c1csc(-c2csc(CCNC(=O)c3ccccc3)n2)n1,87%
4,O=S(=O)(O)c1ccccc1/C=N/N=C/c1ccccc1S(=O)(=O)O,100%
5,CC1(C)C2CCC1(C)C(OCCC/N=C(\N)CSS(=O)(=O)O)C2 (centres undefined),81%
6,O=C(CCCOc1ccc(Cl)cc1Cl)NC(CC1NCc2ccccc21)C(=O)O (centres undefined),67%
7,CCN1C(=O)/C(=C/c2ccc(O)c(S(=O)(=O)O)c2)SC1=S,69%
8,COc1ccc(C(=O)/C=C2/Nc3ccc([N+](=O)[O-])cc3NC2=O)cc1,76%
9,COc1cc(/C=C/Cc2c(O)ccc3c2OCO3)cc(OC)c1OC,inactive
10,O=C1NC(=O)C2N=C(CNc3ccc(C(=O)O)cc3)NC2N1 (centres undefined),inactive
11,CC1(C)N=C(N)N=C(N)N1c1cccc(OCCOc2ccccc2[N+](=O)[O-])c1,100%
12,C=CCN1C(=O)/C(=C/c2ccccc2OCC(=O)O)SC1=S,77%
13,C[N+](C)(CCCCOc1c(Br)cc(Br)cc1Br)Cc1ccc([N+](=O)[O-])o1,100%
14,Cc1cc(Cl)ccc1OCCCC(=O)NC(CC(C)C)C(=O)O (centres undefined),60%
15,O=C(OCc1ccc([N+](=O)[O-])cc1)c1ccccc1[N+](=O)[O-],100%
16,COC(=O)CC(=O)CC(=O)c1cccc([N+](=O)[O-])c1,74%
17,O=S(=O)(SCCCCSS(=O)(=O)c1ccc(Cl)cc1)c1ccc(Cl)cc1,37%
